Measurements from ChEMBL document CHEMBL1156814, “Highly suppressing wild-type HIV-1 and Y181C mutant HIV-1 strains by 10-chloromethyl-11-demethyl-12-oxo-calanolide A with druggable profile” (J Med Chem, 2010).

Columns and labels:
[1] = tested on: Human immunodeficiency virus 1; experiment: Antiviral activity against 100 TCID50 HIV1 infected in human TZM-b1 cells assessed as inhibition of viral replication by pseudovirus based assay; type: functional, organism-based
Rattus norvegicus [2] = experiment: AUC in Wistar rat at 5 mg/kg, iv; type: ADME, organism-based, Plasma; parameters: dose 5 mg/kg, route intravenous; conditions: in vivo
[3] = tested on: Human immunodeficiency virus 1; experiment: Antiviral activity against HIV1 with reverse transcriptase Y181L mutation; type: functional, organism-based
[4] = Cmax in Wistar rat at 5 mg/kg, iv; type: ADME, organism-based; parameters: dose 5 mg/kg, route intravenous; conditions: in vivo
Mus musculus [5] = experiment: Toxicity in ICR mouse assessed as mortality at 2150 mg/kg, ig after 14 days administered as single dose; type: organism-based; parameters: dose 2150 mg/kg, route intragastric; conditions: in vivo, po, 336 h
Mus musculus [6] = experiment: Toxicity in ICR mouse assessed as mortality at 4640 mg/kg, ig after 7 days administered as single dose; type: organism-based; parameters: dose 4640 mg/kg, route intragastric; conditions: in vivo, po, 168 h
Rattus norvegicus [7] = experiment: AUC in Wistar rat at 50 mg/kg, po; type: ADME, organism-based, Plasma; parameters: dose 50 mg/kg, route oral; conditions: in vivo
Mus musculus [8] = experiment: Toxicity in ICR mouse assessed as body weight at 1000 mg/kg, ig after 4 days administered as single dose (reference value: 21.2+/-0.8); type: organism-based; parameters: dose 1000 mg/kg, route intragastric; conditions: in vivo, po, 96 h
[9] = Tmax in Wistar rat at 50 mg/kg, po; type: ADME, organism-based; parameters: dose 50 mg/kg, route oral; conditions: in vivo
Mus musculus [10] = experiment: Toxicity in ICR mouse assessed as mortality at 4640 mg/kg, ig after 11 days administered as single dose; type: organism-based; parameters: dose 4640 mg/kg, route intragastric; conditions: in vivo, po, 264 h
[11] = Mean residence time in Wistar rat at 5 mg/kg, iv; type: ADME, organism-based; parameters: dose 5 mg/kg, route intravenous; conditions: in vivo
Mus musculus [12] = experiment: Toxicity in ICR mouse assessed as body weight at 2150 mg/kg, ig after 7 days administered as single dose (reference value: 20.9+/-0.9); type: organism-based; parameters: dose 2150 mg/kg, route intragastric; conditions: in vivo, po, 168 h
[13] = tested on: Human immunodeficiency virus 1; experiment: Antiviral activity against HIV1 with reverse transcriptase G190A mutation; type: functional, organism-based
Mus musculus [14] = experiment: Toxicity in ICR mouse assessed as mortality at 1000 mg/kg, ig after 7 days administered as single dose; type: organism-based; parameters: dose 1000 mg/kg, route intragastric; conditions: in vivo, po, 168 h
[15] = Tmax in Wistar rat at 5 mg/kg, iv; type: ADME, organism-based; parameters: dose 5 mg/kg, route intravenous; conditions: in vivo
Mus musculus [16] = experiment: Toxicity in ICR mouse assessed as mortality at 1000 mg/kg, ig after 4 days administered as single dose; type: organism-based; parameters: dose 1000 mg/kg, route intragastric; conditions: in vivo, po, 96 h
Mus musculus [17] = experiment: Toxicity in ICR mouse assessed as mortality at 4640 mg/kg, ig after 4 days administered as single dose; type: organism-based; parameters: dose 4640 mg/kg, route intragastric; conditions: in vivo, po, 96 h
Mus musculus [18] = experiment: Toxicity in ICR mouse assessed as body weight at 4640 mg/kg, ig after 1 day administered as single dose (reference value: 21.1+/-0.9); type: organism-based; parameters: dose 4640 mg/kg, route intragastric; conditions: in vivo, po, 24 h
Mus musculus [19] = experiment: Toxicity in ICR mouse assessed as mortality at 2150 mg/kg, ig after 4 days administered as single dose; type: organism-based; parameters: dose 2150 mg/kg, route intragastric; conditions: in vivo, po, 96 h
Mus musculus [20] = experiment: Toxicity in ICR mouse assessed as mortality at 2150 mg/kg, ig after 7 days administered as single dose; type: organism-based; parameters: dose 2150 mg/kg, route intragastric; conditions: in vivo, po, 168 h
Mus musculus [21] = experiment: Toxicity in ICR mouse assessed as body weight at 2150 mg/kg, ig after 1 day administered as single dose (reference value: 20.9+/-0.9); type: organism-based; parameters: dose 2150 mg/kg, route intragastric; conditions: in vivo, po, 24 h
Mus musculus [22] = experiment: Toxicity in ICR mouse assessed as body weight at 1000 mg/kg, ig after 7 days administered as single dose (reference value: 21.2+/-0.8); type: organism-based; parameters: dose 1000 mg/kg, route intragastric; conditions: in vivo, po, 168 h
Mus musculus [23] = experiment: Toxicity in ICR mouse assessed as mortality at 1000 mg/kg, ig after 11 days administered as single dose; type: organism-based; parameters: dose 1000 mg/kg, route intragastric; conditions: in vivo, po, 264 h
[24] = Selectivity index, ratio of IC50 for African green monkey Vero cells to EC50 for HIV1; type: toxicity, cell-based; conditions: read-out: Selectivity Index
[25] = Mean residence time in Wistar rat at 50 mg/kg, po; type: ADME, organism-based; parameters: dose 50 mg/kg, route oral; conditions: in vivo
Mus musculus [26] = experiment: Toxicity in ICR mouse assessed as mortality at 4640 mg/kg, ig after 1 day administered as single dose; type: organism-based; parameters: dose 4640 mg/kg, route intragastric; conditions: in vivo, po, 24 h
[27] = Half life in Wistar rat at 5 mg/kg, iv; type: ADME, organism-based; parameters: dose 5 mg/kg, route intravenous; conditions: in vivo
Mus musculus [28] = experiment: Toxicity in ICR mouse assessed as body weight at 4640 mg/kg, ig after 4 days administered as single dose (reference value: 21.1+/-0.9); type: organism-based; parameters: dose 4640 mg/kg, route intragastric; conditions: in vivo, po, 96 h
Mus musculus [29] = experiment: Toxicity in ICR mouse assessed as mortality at 2150 mg/kg, ig after 1 day administered as single dose; type: organism-based; parameters: dose 2150 mg/kg, route intragastric; conditions: in vivo, po, 24 h
[30] = Oral bioavailability in Wistar rat at 50 mg/kg; type: ADME, organism-based; conditions: in vivo
[31] = tested on: Human immunodeficiency virus 1; experiment: Antiviral activity against HIV1 with reverse transcriptase Y181C mutation; type: functional, organism-based
[32] = Cmax in Wistar rat at 50 mg/kg, po; type: ADME, organism-based; parameters: dose 50 mg/kg, route oral; conditions: in vivo
Mus musculus [33] = experiment: Toxicity in ICR mouse assessed as mortality at 2150 mg/kg, ig after 11 days administered as single dose; type: organism-based; parameters: dose 2150 mg/kg, route intragastric; conditions: in vivo, po, 264 h
[34] = Toxicity in African green monkey Vero cells; type: cell-based; conditions: chlorocebus sabaeus
[35] = Half life in Wistar rat at 50 mg/kg, po; type: ADME, organism-based; parameters: dose 50 mg/kg, route oral; conditions: in vivo
Mus musculus [36] = experiment: Toxicity in ICR mouse assessed as mortality at 4640 mg/kg, ig after 14 days administered as single dose; type: organism-based; parameters: dose 4640 mg/kg, route intragastric; conditions: in vivo, po, 336 h
[37] = tested on: Human immunodeficiency virus 1; experiment: Antiviral activity against HIV1 with reverse transcriptase […] mutation; type: functional, organism-based
Mus musculus [38] = experiment: Toxicity in ICR mouse assessed as body weight at 4640 mg/kg, ig after 7 days administered as single dose (reference value: 21.1+/-0.9); type: organism-based; parameters: dose 4640 mg/kg, route intragastric; conditions: in vivo, po, 168 h
Mus musculus [39] = experiment: Toxicity in ICR mouse assessed as mortality at 1000 mg/kg, ig after 1 day administered as single dose; type: organism-based; parameters: dose 1000 mg/kg, route intragastric; conditions: in vivo, po, 24 h
[40] = tested on: Human immunodeficiency virus 1; experiment: Antiviral activity against HIV1 PNL4-3; type: functional, organism-based; conditions: Human immunodeficiency virus 1, PNL4-3
Mus musculus [41] = experiment: Toxicity in ICR mouse assessed as body weight at 2150 mg/kg, ig after 4 days administered as single dose (reference value: 20.9+/-0.9); type: organism-based; parameters: dose 2150 mg/kg, route intragastric; conditions: in vivo, po, 96 h
Mus musculus [42] = experiment: Toxicity in ICR mouse assessed as body weight at 1000 mg/kg, ig after 1 day administered as single dose (reference value: 21.2+/-0.8); type: organism-based; parameters: dose 1000 mg/kg, route intragastric; conditions: in vivo, po, 24 h
[43] = tested on: Human immunodeficiency virus 1; experiment: Antiviral activity against HIV1 with reverse transcriptase K103N mutation; type: functional, organism-based
Mus musculus [44] = experiment: Toxicity in ICR mouse assessed as mortality at 1000 mg/kg, ig after 14 days administered as single dose; type: organism-based; parameters: dose 1000 mg/kg, route intragastric; conditions: in vivo, po, 336 h
[45] = Toxicity in human TZM-b1 cells; type: cell-based
[46] = Human immunodeficiency virus 1, TZM-b1, read-out: EC50

Compound: CCCc1cc(=O)oc2c3c(c4c(c12)OC(C)(C)C=C4)OC(CNS(=O)(=O)c1ccc(OC)cc1)CC3=O (stereo unspecified)
- EC50 ([1]; tzm-b1): Not Active

Compound: CCCc1cc(=O)oc2c3c(c4c(c12)OC(C)(C)C=C4)OC(CN(C)C)CC3=O (stereo unspecified)
- EC50 ([1]; tzm-b1): Not Active

Compound: CCCc1cc(=O)oc2c3c(c4c(c12)OC(C)(C)C=C4)OC(CCl)CC3=O (stereo unspecified)
- AUC (Rattus norvegicus [2]): 1.5 ug/hr.ml
- EC50 [3]: 6130 nM
- Cmax [4]: 930 ng/mL
- Activity (Mus musculus [5]): Non-toxic
- Activity (Mus musculus [6]): Non-toxic
- AUC (Rattus norvegicus [7]): 4.7 ug/hr.ml
- Activity (Mus musculus [8]): 28.5 g
- Tmax [9]: 8 h
- Activity (Mus musculus [10]): Non-toxic
- MRT [11]: 1.7 h
- Activity (Mus musculus [12]): 31.4 g
- EC50 [13]: 43.9 nM
- Activity (Mus musculus [14]): Non-toxic
- Tmax [15]: 1.8 min
- Activity (Mus musculus [16]): Non-toxic
- Activity (Mus musculus [17]): Non-toxic
- Activity (Mus musculus [18]): 23.2 g
- Activity (Mus musculus [19]): Non-toxic
- Activity (Mus musculus [20]): Non-toxic
- Activity (Mus musculus [21]): 23 g
- Activity (Mus musculus [22]): 31.1 g
- Activity (Mus musculus [23]): Non-toxic
- selectivity ratio [24]: 1420
- MRT [25]: 9.2 h
- Activity (Mus musculus [26]): Non-toxic
- half-life [27]: 1.9 h
- Activity (Mus musculus [28]): 27.5 g
- Activity (Mus musculus [29]): Non-toxic
- bioavailability [30]: 32.7%
- EC50 [31]: 0.46 nM
- Cmax [32]: 340 ng/mL
- Activity (Mus musculus [33]): Non-toxic
- CC50 [34]: 10500 nM
- half-life [35]: 3.8 h
- Activity (Mus musculus [36]): Non-toxic
- EC50 [37]: 104 nM
- Activity (Mus musculus [38]): 29.9 g
- Activity (Mus musculus [39]): Non-toxic
- EC50 [40]: 7.4 nM
- Activity (Mus musculus [41]): 28 g
- EC50 [1, 46]: 7.4 nM
- Activity (Mus musculus [42]): 23 g
- EC50 [43]: 316 nM
- Activity (Mus musculus [44]): Non-toxic

Compound: CCCc1cc(=O)oc2c3c(c4c(c12)OC(C)(C)C=C4)OC(C(F)(F)F)CC3=O (stereo unspecified)
- EC50 [1, 46]: 14900 nM

Compound: CCCc1cc(=O)oc2c3c(c4c(c12)OC(C)(C)C=C4)OC(CN1CCCCC1)CC3=O (stereo unspecified)
- EC50 ([1]; tzm-b1): Not Active

Compound: CCCc1cc(=O)oc2c3c(c4c(c12)OC(C)(C)C=C4)O[C@H]1C[C@H]1C3=O (relative stereo) [CIS-10,11-CYCLOPROPYL-12-OXO-CALANOLIDE A]
- selectivity ratio [24]: 709
- CC50 [34]: 7140 nM
- EC50 [1, 46]: 14.1 nM

Compound: CCCc1cc(=O)oc2c3c(c4c(c12)OC(C)(C)C=C4)OC(CN)CC3=O (stereo unspecified) [1'-AMINEMETHYL-11-DEMETHYL-12-OXO-CALANOLIDE A]
- EC50 ([1]; tzm-b1): Not Active

Compound: CCCc1cc(=O)oc2c3c(c4c(c12)OC(C)(C)C=C4)OC(CN=[N+]=[N-])CC3=O (stereo unspecified) [1'-AZIDEMETHYL-11-DEMETHYL-12-OXO-CALANOLIDE A]
- Activity [45]: Toxic
- EC50 ([1]; tzm-b1): Not Active

Compound: CCCc1cc(=O)oc2c3c(c4c(c12)OC(C)(C)C=C4)O[C@H](C)[C@@H](C)[C@@H]3O [CALANOLIDE A]
- EC50 [3]: 7170 nM
- EC50 [13]: 159 nM
- selectivity ratio [24]: 16
- EC50 [31]: 10600 nM
- EC50 [37]: 2.2 nM
- EC50 [40]: 11.4 nM
- EC50 [1, 46]: 100 nM
- EC50 [43]: 464 nM

Compound: Cc1ccnc2c1NC(=O)c1cccnc1N2C1CC1 [NEVIRAPINE]
- EC50 [3]: 10500 nM
- EC50 [13]: 385 nM
- selectivity ratio [24]: 3300
- EC50 [31]: 42.6 nM
- CC50 [34]: 27100 nM
- EC50 [37]: 6150 nM
- EC50 [40]: 97.5 nM
- EC50 [1, 46]: 8.2 nM
- EC50 [43]: 13400 nM
